Laboratory results published in US20240082296A1, “TREATMENT OF MUSCLE ATROPHY USING DEXTRAN SULFATE” (TX MEDIC AB, priority 2020, published 2024).

System: human patients suffering from ALS
Test: serum lactate in ALS patients before and after dextran sulfate (Example 1)
Type: in vivo
Settings: 2 mg/kg s.c. once a week; for serum lactate levels: week 0: 1.78±0.59
Source text: Using a longitudinal design, this study was aimed to determine the changes of selected serum metabolites in ALS patients before dextran sulfate administration and after different times following the beginning of the treatment. Changes in the measured metabolites indicated the biochemical response of the patient to dextran sulfate that is underpinning potential disease modification and the mechanisms of action of the drug in this ALS patient population.
Dextran sulfate (Tikomed AB, Viken, Sweden, WO 2016/076780) was administered at 2 mg/kg by […] subcutaneous injection once a week for ten weeks to 8 human patients suffering from ALS.
Peripheral venous blood samples were collected from patients before (week 0) and after dextran sulfate administration (week 5 and week 10) after at least 15 minutes of complete rest, using the standard tourniquet procedure, from the antecubital vein into a single VACUETTE® polypropylene tube containing serum separator and clot activator (Greiner-Bio One GmbH, Kremsmunster, Austria). After 30 mins at room temperature (20-25° C.), blood withdrawals were centrifuged at 1,890×g for 10 min to get serum aliquots.
A serum aliquot of 500 μl was supplemented with 1 ml of HPLC-grade acetonitrile, vortexed for 60 secs, centrifuged at the maximum speed in a top-bench centrifuge to precipitate proteins. Supernatants were washed with large volumes of HPLC-grade chloroform to remove organic solvent, centrifuged and the upper aqueous phases were transferred to different tubes, clearly labeled to identify the sample and stored at −80° C. until analyzed to determine different water-soluble compounds.

Substance: dextran sulfate
- increase of serum lactate levels (after 5 weeks vs week 0): 29.8%
- serum lactate levels (after 5 weeks, p<0.01): 2.31 ± 1.02 mM
- increase of serum lactate levels (after 10 weeks vs week 0): 70%
- serum lactate levels (after 10 weeks): 3.02 ± 1.59 mM
